According to patent US20090170847A1, “Imidazopyridine Derivatives Inhibiting Protein Kinase Activity, Method for the Preparation Thereof and Pharmaceutical Composition Containing Same” (priority 2006, published 2009):

Legend:
Format in all cases: biochemical
[1] = biological target: T1, KDR (Homo sapiens, UniProt P35968); assay: KDR enzyme inhibition (Biotin-polyE4Y, alphascreen); conditions: 0.1 μM ATP
T1 construct: purchased Upstate
Protocol: (§1) The test solution prepared above by dissolving a test compound in DMSO was added to the reaction solution in an amount of less than 5% based on the total reaction solution to analyze the capacity for enzyme inhibitory activity. The cpm value obtained when the test compounds was present relative to the cpm value in the absence of the test compound was represented by percentage, and IC50 (μM) was determined as the concentration of the test compound required to inhibit the enzyme activity by 50% relatively to the control solution.
The compounds prepared in the Examples were dissolved in dimethylsulfoxide (DMSO) at a concentration of 12.5 mM to prepare test solution, and enzyme reaction was conducted in a buffer solution containing 50 mM tris-HCl (pH 7.5), 5 mM MgCl2, 1 mM MnCl2, 0.01% tween-20 and 2 mM of DTT. 1 nM of Biotin-polyE4Y (Packard) and 0.1 μM of ATP were added to the buffer solution as substrates. 2 nM of recombinant KDR (Upstate) was added the resulting mixture and reaction was carried out at 30° C. for 1 hour. 10 μl of a diluted solution prepared by diluting alphascreen phosphotyrosine (T-Tyr-100, Packard) beads with a solution containing 6.25 mM of HEPES (pH 7.4), 250 mM of NaCl, 100 Mm EDTA, and 0.25% BSA was added to 15 μl of the KDR reaction solution. After a reaction at a room temperature for 1 hour, alphascreen signal was measured by a fusion a-FP (Packard). Inhibitory capacities of the test compounds for the enzyme activity were assessed according to the same method as in GSK-3β analysis, and IC50 value was calculated.

[2] = biological target: T2, CDK-2/cycline A (Homo sapiens, UniProt P24941); assay: CDK-2 enzyme inhibition (histone H1, 32P-ATP)
T2 construct: purchased Upstate
Protocol: (§2) 0.33 mg/ml of MBP (Upstate), 100 μM of ATP and 0.25 μCi of ^32P-ATP were added to the buffer solution as substrates. 5 nM of recombinant Erk-1 (Upstate) was added the resulting mixture, and the mixture was reacted at 30° C. for 1 hour. The reaction was terminated by adding 5 μl of 5% phosphoric acid solution to 25 μl of the reaction mixture. 15 μl of the resulting solution was dropped on whatman p81 filter paper, which was then washed in 0.5% phosphoric acid solution for 10 mins. After repeating the washing 3 times, the filter paper was dried and cpm thereof was measured by a liquid scintillation counter (Packard, USA). Inhibitory capacities of the test compounds for the enzyme activity were assessed according to the same method as in GSK-3β analysis, and IC50 value was calculated.
The procedure of ERK-1 analysis was repeated to assess inhibitory capacities of the test compounds for the enzyme activity, except for using 2.5 μg of histone H1 (Upstate) and 100 nM of recombinant CDK-2/cycline A (Upstate).

[3] = biological target: T3, ERK-1 (Homo sapiens, UniProt P27361); assay: ERK-1 enzyme inhibition (MBP, 32P-ATP); conditions: ERK-1, 100 μM ATP
T3 construct: purchased Upstate
T3 sequence (P27361 whole entry, species assumed): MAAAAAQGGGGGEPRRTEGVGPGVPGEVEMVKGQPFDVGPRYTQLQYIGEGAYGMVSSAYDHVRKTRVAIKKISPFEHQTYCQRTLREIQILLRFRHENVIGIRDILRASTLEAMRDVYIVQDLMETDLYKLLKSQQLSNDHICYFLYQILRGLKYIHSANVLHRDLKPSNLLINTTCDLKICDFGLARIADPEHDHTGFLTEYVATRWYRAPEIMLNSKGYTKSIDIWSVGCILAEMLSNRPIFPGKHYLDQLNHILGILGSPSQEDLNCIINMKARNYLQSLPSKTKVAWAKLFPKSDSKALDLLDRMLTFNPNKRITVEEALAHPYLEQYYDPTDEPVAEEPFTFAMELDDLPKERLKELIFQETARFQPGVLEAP
Protocol: as §1
as §2, with “The compounds prepared in the Examples were dissolved in dimethylsulfoxide (DMSO) at a concentration of 12.5 mM to prepare test compounds and enzyme reaction was conducted in a buffer solution containing 50 mM of tris-HCl (pH 7.5), 10 mM of MgCl2, 1 mM of EGTA, 1 mM of EDTA and 1 mM of DTT. 0.33” for “0.33”

[4] = biological target: T4, PDK-1 (Homo sapiens, UniProt O15530); assay: PDK-1 enzyme inhibition (PDKtide, Kinase glo)
T4 construct: purchased Upstate
T4 sequence (O15530 1-556): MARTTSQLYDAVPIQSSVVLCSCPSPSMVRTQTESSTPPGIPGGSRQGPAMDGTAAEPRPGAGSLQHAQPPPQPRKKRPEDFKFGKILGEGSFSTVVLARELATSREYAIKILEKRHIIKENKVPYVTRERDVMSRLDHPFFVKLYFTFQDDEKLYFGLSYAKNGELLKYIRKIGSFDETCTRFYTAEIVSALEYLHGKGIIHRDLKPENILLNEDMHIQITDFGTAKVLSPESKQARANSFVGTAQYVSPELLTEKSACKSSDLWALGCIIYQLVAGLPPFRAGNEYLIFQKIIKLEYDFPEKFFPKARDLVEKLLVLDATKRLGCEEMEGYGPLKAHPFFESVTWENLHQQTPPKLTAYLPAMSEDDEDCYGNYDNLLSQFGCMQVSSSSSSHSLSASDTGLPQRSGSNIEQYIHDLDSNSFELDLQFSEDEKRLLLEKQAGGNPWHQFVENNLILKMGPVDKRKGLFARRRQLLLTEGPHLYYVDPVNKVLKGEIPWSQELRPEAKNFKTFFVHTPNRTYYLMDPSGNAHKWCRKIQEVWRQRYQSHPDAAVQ
Protocol: (§3) A test solution was prepared by dissolving one of the compounds of the Examples in DMSO at a concentration of 12.5 mM. Enzyme reaction was conducted in a buffer solution containing 20 mM of HEPES (pH 7.5), 5 mM MgCl2, 0.5 mM ethylene glycol bis(b-aminoethylether) tetraacetic acid (EGTA), 200 mM of KCl, 1 mM of DTT and 0.05% triton X-100. 100 μM of Kemptide peptide (Upstate) and 1 μM of ATP were added to the buffer solution as substrates. Recombinant aurora kinase (Upstate) was added the resulting mixture at a concentration of 10 nM and reaction was carried out at 30° C. for 1 hour. 25 μl of the resulting solution was mixed with 25 μl of Kinase glo (promega), thereby inducing the second reaction by luciferase. The amount of remained ATP was measured by fusion a-FP (Packard, USA). Inhibitory capacities of the test compounds for the enzyme activity were assessed according to the same method as in GSK-3β analysis, and IC50 value was calculated.
The procedure of aurora kinase A analysis was repeated to assess inhibitory capacities of the test compounds for the enzyme activity, except for using a buffer solution containing 50 mM of tris-HCl (pH 7.5), 10 mM of MgCl2, 1 mM of EGTA and 1 mM of […]; 2.5 μM of PDKtide (peptide, Upstate) (Upstate); and 31.5 nM of recombinant PDK1 (Upstate).

[5] = biological target: T5, JNK-1 (Homo sapiens, UniProt P45983); assay: JNK-1 enzyme inhibition (GST-ATF2, 32P-ATP)
T5 construct: purchased Upstate
T5 sequence (P45983 whole entry, species assumed): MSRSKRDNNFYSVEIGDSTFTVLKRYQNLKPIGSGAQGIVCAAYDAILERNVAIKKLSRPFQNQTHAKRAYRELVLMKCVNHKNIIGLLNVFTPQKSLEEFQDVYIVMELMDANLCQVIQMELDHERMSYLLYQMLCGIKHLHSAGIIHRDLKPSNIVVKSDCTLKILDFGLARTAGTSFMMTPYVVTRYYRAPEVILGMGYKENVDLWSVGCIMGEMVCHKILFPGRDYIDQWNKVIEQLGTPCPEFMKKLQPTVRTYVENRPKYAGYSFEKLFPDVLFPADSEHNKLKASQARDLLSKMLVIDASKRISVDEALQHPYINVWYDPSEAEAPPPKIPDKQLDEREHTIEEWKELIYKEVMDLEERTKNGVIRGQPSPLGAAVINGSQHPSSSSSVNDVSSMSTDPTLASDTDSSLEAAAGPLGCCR

[6] = biological target: T6, Aurora Kinase A (Homo sapiens, UniProt O14965); assay: Aurora kinase A enzyme inhibition (Kemptide, Kinase glo); conditions: 1 μM ATP
T6 construct: purchased Upstate
T6 sequence (O14965 1-403): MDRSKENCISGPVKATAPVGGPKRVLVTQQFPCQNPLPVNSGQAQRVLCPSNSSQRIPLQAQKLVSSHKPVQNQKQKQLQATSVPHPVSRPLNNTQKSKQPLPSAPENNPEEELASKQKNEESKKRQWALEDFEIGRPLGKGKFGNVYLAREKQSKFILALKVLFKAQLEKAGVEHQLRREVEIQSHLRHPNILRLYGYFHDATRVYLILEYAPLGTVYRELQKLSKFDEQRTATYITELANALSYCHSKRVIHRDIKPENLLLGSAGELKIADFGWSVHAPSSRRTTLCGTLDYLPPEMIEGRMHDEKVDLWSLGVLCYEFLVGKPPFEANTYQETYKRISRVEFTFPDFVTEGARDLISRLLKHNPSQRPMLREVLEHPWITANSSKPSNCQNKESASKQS
Protocol: as §1, §3

[7] = biological target: T7, p38 Mitogen-activated protein kinase (MAPK) (Homo sapiens, UniProt Q16539); assay: p38 MAPK enzyme inhibition (histone H1, 32P-ATP); conditions: p38 MAPK (recombinant p38a)
T7 construct: purchased Upstate
T7 sequence (Q16539 whole entry): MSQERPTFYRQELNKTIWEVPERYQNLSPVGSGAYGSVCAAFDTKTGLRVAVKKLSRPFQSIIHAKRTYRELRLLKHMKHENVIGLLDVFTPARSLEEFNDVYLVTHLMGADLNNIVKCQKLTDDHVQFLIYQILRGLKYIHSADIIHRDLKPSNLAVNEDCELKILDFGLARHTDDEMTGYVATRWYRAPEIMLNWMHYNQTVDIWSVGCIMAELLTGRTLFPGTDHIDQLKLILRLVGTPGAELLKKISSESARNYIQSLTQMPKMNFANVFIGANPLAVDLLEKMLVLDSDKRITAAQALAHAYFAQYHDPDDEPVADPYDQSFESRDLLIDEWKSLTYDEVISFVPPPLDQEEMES

T1 sequence (P35968 20-1356, species assumed): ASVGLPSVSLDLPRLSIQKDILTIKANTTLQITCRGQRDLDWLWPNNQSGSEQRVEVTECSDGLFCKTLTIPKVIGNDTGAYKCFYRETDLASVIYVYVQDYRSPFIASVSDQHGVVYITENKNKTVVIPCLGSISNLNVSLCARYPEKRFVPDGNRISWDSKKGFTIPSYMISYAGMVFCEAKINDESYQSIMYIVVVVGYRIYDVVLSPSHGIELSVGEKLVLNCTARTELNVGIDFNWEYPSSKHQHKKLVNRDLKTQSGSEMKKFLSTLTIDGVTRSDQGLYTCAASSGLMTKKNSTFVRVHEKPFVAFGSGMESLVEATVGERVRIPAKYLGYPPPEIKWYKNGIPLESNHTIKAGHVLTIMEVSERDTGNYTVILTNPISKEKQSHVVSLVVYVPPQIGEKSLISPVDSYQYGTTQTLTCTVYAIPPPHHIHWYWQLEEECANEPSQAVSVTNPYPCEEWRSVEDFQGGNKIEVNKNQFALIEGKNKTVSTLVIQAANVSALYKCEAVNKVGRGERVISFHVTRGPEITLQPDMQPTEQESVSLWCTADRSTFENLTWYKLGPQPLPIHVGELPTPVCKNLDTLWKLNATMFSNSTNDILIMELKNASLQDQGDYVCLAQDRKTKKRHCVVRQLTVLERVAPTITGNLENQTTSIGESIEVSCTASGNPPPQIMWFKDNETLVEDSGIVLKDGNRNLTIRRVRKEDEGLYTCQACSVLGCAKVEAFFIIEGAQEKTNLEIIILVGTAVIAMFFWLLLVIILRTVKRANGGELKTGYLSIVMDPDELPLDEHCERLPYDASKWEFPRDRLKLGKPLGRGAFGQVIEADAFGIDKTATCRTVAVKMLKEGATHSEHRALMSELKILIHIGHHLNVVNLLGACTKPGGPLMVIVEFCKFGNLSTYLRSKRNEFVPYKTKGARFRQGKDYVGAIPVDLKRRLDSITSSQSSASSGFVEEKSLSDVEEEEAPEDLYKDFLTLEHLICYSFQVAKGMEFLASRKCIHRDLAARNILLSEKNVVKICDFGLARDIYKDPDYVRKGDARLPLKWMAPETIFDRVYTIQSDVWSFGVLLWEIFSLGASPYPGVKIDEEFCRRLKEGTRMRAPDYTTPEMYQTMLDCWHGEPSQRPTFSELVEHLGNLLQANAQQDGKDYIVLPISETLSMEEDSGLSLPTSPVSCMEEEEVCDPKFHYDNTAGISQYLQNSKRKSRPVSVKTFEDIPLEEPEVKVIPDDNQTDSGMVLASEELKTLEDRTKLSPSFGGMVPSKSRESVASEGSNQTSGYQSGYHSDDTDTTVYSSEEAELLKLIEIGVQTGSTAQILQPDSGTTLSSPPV

Compound	IC50 [1] [nM]	IC50 [2] [nM]	IC50 [3] [nM]	IC50 [4] [nM]	IC50 [5] [nM]	IC50 [6] [nM]	IC50 [7] [nM]
CCS(=O)(=O)Nc1ccc(CCNC(=O)c2ccnc3[nH]c(-c4ccc(F)cc4)nc23)cc1 [Example 198, 2-(4-fluoro-phenyl)-3H-imidazo[4,5-b]pyridine-7-carboxylic acid[2-(4-ethanesulfonylamino-phenyl)-ethyl]-amide]	12500	2400	–	–	–	–	–
COc1ccncc1NC(=O)c1ccnc2[nH]c(-c3ccc(F)cc3)nc12 [Example 246, 2-(4-fluoro-phenyl)-3H-imidazo[4,5-b]pyridine-7-carboxylic acid(4-methyloxy-pyridin-3-yl)-amide]	520	225	–	–	180	–	–
CCOc1ccncc1NC(=O)c1ccnc2[nH]c(-c3ccc(F)cc3)nc12 [Example 287, 2-(4-fluoro-phenyl)-3H-imidazo[4,5-b]pyridine-7-carboxylic acid(4-ethoxy-pyridin-3-yl)-amide]	1500	120	–	–	460	–	–
Cc1ccncc1NC(=O)c1ccnc2[nH]c(-c3ccc(NCCCN4CCCC4)cc3)nc12 [Example 340, 2-[4-(3-pyrrolidin-1-yl-propylamino)-phenyl]-3H-imidazo[4,5-b]pyridine-7-carboxylic acid(4-methyl-pyridin-3-yl)-amide]	–	400	–	–	100	–	–
Cc1ccncc1NC(=O)c1ccnc2[nH]c(-c3ccc(NCCCCN(C)C)cc3)nc12 [Example 343, 2-[4-(4-dimethylamino-butylamino)-phenyl]-3H-imidazo[4,5-b]pyridine-7-carboxylic acid(4-methyl-pyridin-3-yl)-amide]	170	300	–	3100	–	198	–

Other lines, results leading:

IC50 [1] [nM]	IC50 [2] [nM]	IC50 [3] [nM]	IC50 [4] [nM]	IC50 [5] [nM]	IC50 [6] [nM]	IC50 [7] [nM]	Compound
–	–	16500	28500	–	–	–	Cc1ccncc1NC(=O)c1ccnc2[nH]c(-c3ccc(F)cc3)nc12 [Example 241, 2-(4-fluoro-phenyl)-3H-imidazo[4,5-b]pyridine-7-carboxylic acid(4-methyl-pyridin-3-yl)-amide]
1650	360	–	–	10500	–	3250	Cc1ccncc1NC(=O)c1ccnc2[nH]c(-c3cccc(F)c3)nc12 [Example 451, 2-(3-fluoro-phenyl)-3H-imidazo[4,5-b]pyridine-7-carboxylic acid(4-methyl-pyridin-3-yl)-amide]
–	350	19000	–	–	–	–	Cc1ccncc1NC(=O)c1c(Br)cnc2[nH]c(-c3cccc(F)c3)nc12 [Example 452, 6-bromo-2-(3-fluoro-phenyl)-3H-imidazo[4,5-b]pyridine-7-carboxylic acid(4-methyl-pyridin-3-yl)-amide]
